{"source": "patent US12612411B1", "about": "“Imidazopyrazine derivatives, process for preparation thereof, and their uses as luciferins” (INSTITUT PASTEUR, priority 2017, dated 2026)", "biological_target": "T1, nanoKAZ (Oplophorus gracilirostris, UniProt Q9GV45, A31E/A60N/A81I/F95D/I117V/K70R/L54V/L99Q/M102K/N193R/P142E/Q151K/Q38R/Q45L/V71I/Y165I)", "T1 construct": "luciferase catalytic domain (nanoKAZ, 19 kDa) from the Oplophorus-derived luciferase", "T1 sequence (Q9GV45 other isoform, or with tags, fused parts or gaps with the stated changes)": "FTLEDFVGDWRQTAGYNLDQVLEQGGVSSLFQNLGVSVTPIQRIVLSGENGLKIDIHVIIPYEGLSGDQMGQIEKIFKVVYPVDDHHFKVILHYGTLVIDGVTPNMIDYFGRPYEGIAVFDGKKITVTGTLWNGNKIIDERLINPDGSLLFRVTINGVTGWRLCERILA", "assay": "Michaelis-Menten parameters of nanoKAZ from Lineweaver-Burk representation", "assay_type": "biochemical", "conditions": "extrapolated from Lineweaver-Burk, constant enzyme concentration", "source_text": "The two dotted lines (linear regression) are converging to the same intercept with the x-axis (−1/Km) and different intercepts with the y-axis (1/Vmax). The equations of the two linear regressions are indicated and the corresponding correlation factors (R^2) with the experimental data are reported.\nConsidering the hypothesis of a Michaelis-Menten mechanism for the nanoKAZ, the Km and Vmax were extrapolated from the Lineweaver-Burk representation of the enzyme activity catalyzing either Q-1 or Q-3. […] The data have been fitted with linear regression with satisfying high correlation factors (R). The Km are the same for both substrates (Km=2 μM) whereas the Vmax is 3-times lower for Q-1 (0.6·10^6 RLU/sec) than for Q-3 (2.0·10^6 RLU/sec)."}
{"smiles": "O=c1c(Cc2ccco2)nc2c(Cc3ccccc3)[nH]c(-c3ccccc3)cn1-2", "note": "[Q-1, 8-benzyl-2-(furan-2-ylmethyl)-6-phenylimidazo[1,2-a]pyrazin-3(7H)-one, reference compound]", "values": [{"measurement": "Km", "result": 2, "unit": "µM"}]}
{"smiles": "Cc1ccc(Cc2nc3c(Cc4ccccc4)[nH]c(-c4ccccc4)cn-3c2=O)o1", "note": "[Q-3, 8-benzyl-2-((5-methylfuran-2-yl)methyl)-6-phenylimidazo[1,2-a]pyrazin-3(7H)-one]", "values": [{"measurement": "Km", "result": 2, "unit": "µM"}]}
